# Legend:
# CYP2B6 = target: T1, CYP2B6 (Homo sapiens, UniProt P20813); details: in vitro
# T1 sequence (P20813 1-491): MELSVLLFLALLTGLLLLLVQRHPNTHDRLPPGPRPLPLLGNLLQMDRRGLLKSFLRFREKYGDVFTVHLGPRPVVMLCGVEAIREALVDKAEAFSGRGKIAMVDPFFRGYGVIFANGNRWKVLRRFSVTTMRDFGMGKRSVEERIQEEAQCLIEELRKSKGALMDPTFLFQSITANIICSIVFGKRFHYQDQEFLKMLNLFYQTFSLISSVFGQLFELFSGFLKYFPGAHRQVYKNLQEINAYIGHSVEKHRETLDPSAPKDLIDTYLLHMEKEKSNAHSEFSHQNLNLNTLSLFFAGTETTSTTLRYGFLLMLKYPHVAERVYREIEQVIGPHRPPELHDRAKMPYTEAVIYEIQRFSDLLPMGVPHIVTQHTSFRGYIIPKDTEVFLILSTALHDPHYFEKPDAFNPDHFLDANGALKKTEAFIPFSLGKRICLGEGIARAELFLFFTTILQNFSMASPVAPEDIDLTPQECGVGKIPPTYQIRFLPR
# [1] = test system: mouse model of depression; details: cited from earlier work
# [2] = test system: phencyclidine site of the N-methyl-D-aspartate (NMDA) receptor; details: compared with racemic ketamine or S(+)-ketamine; cited from earlier work
smiles,measurement,setting,value
"CN[C@@]1(c2ccccc2Cl)CCCCC1=O.Cl [R(−)-ketamine, (2R)-2-(2-chlorophenyl)-2-(methylamino)cyclohexan-1-one]",CYP2B6 inhibition,CYP2B6,inhibitor
same,Antidepressant effects on depression-like symptoms,[1],more potent antidepressant effects on the depression-like symptoms when compared to S(+)-ketamine
same,Lower affinity to the NMDA receptor,[2],4 fold

# — patent publication US20260027068A1, “METHODS OF ADM[…]-KETAMINE” (Perception Neuroscience, Inc., priority 2022, published 2026)
